Measured values taken from PubChem BioAssay (NCI).
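In this assay, cells in 96-well plates receive the compound at five concentrations for 48 hours. Endpoints are linearly interpolated between the surrounding concentrations. Definition used: TGI = concentration required for complete inhibition of growth.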

Experiments:
Test in all cases: NCI tumour cell line growth inhibition, 48 h
SK-MEL-2 melanoma = system: SK-MEL-2 melanoma
A549 NSCLC = system: A549 NSCLC
NCI-H23 lung = system: NCI-H23 lung
K-562 leukemia = system: K-562 leukemia
M14 melanoma = system: M14 melanoma
KM12 colon = system: KM12 colon
NCI/ADR-RES ovarian = system: NCI/ADR-RES ovarian
SK-MEL-28 melanoma = system: SK-MEL-28 melanoma
OVCAR-4 ovarian = system: OVCAR-4 ovarian
RXF 393 renal = system: RXF 393 renal
SF-539 CNS = system: SF-539 CNS
HT29 colon = system: HT29 colon
NCI-H460 lung = system: NCI-H460 lung
MCF7 breast = system: MCF7 breast
EKVX NSCLC = system: EKVX NSCLC
UO-31 renal = system: UO-31 renal
SF-295 CNS = system: SF-295 CNS
OVCAR-5 ovarian = system: OVCAR-5 ovarian
OVCAR-8 ovarian = system: OVCAR-8 ovarian
CAKI-1 renal = system: CAKI-1 renal

Compound | TGI (SK-MEL-2 melanoma) [µM] | TGI (A549 NSCLC) [µM] | TGI (NCI-H23 lung) [µM] | TGI (K-562 leukemia) [µM] | TGI (M14 melanoma) [µM] | TGI (KM12 colon) [µM] | TGI (NCI/ADR-RES ovarian) [µM] | TGI (SK-MEL-28 melanoma) [µM] | TGI (OVCAR-4 ovarian) [µM] | TGI (RXF 393 renal) [µM] | TGI (SF-539 CNS) [µM] | TGI (HT29 colon) [µM] | TGI (NCI-H460 lung) [µM] | TGI (MCF7 breast) [µM] | TGI (EKVX NSCLC) [µM] | TGI (UO-31 renal) [µM] | TGI (SF-295 CNS) [µM] | TGI (OVCAR-5 ovarian) [µM] | TGI (OVCAR-8 ovarian) [µM] | TGI (CAKI-1 renal) [µM]
COC(=O)[C@]1(CCC(C)=O)C(=O)C=CN([C@H](C)c2ccccc2)[C@@H]1Cc1ccc(OC)c(OCc2ccccc2)c1I | 31.7 | 73.5 | 49.6 | > 100 | 28.2 | 43.1 | 62.8 | > 100 | > 100 | 23.6 | 32.9 | 31.8 | 30.7 | 46.2 | > 100 | 31.6 | 35.2 | 63.8 | 85.2 | > 100
COc1cc(Nc2nc(NS(=O)(=O)c3cc(C)c(Cl)cc3S)n[nH]2)cc(OC)c1OC | > 100 | > 100 | > 100 | > 100 | > 100 | > 100 | > 100 | > 100 | > 100 | > 100 | > 100 | > 100 | > 100 | > 100 | > 100 | > 100 | > 100 | > 100 | > 100 | > 100
COC1=C(OC)C(=O)c2cc(C)c(=O)c(C)cc2C1=O | 36.8 | 38 | 34.2 | > 24 | 30.8 | 36.6 | 39.4 | 31 | 7.64 | 29.4 | 33.1 | 50.5 | 48.5 | 36.4 | 31.5 | 27.9 | 48.5 | 47.6 | 35.7 | 31.7
Cc1c(CNc2ccc(Cl)c(Cl)c2Cl)cnc2nc(N)nc(N)c12 | > 90 | > 41.3 | > 49.3 | 5.14 | > 100 | > 100 | > 100 | 31.7 | 31.1 | > 55.5 | 12.2 | > 53.9 | > 48.9 | > 46.7 | > 69 | > 100 | 3.16 | > 50.4 | 1.41 | > 100
NC(Cc1c2ccccc2cc2ccccc12)C(=O)O (stereo not given) | > 100 | > 100 | > 100 | > 100 | > 100 | > 100 | > 100 | > 100 | > 100 | > 100 | > 100 | > 100 | > 100 | > 100 | > 100 | > 100 | > 100 | > 100 | > 100 | > 100
